Assay results: patent publication US20160271268A1, “NUCLEIC ACID NANOSTRUCTURES FOR IN VIVO AGENT DELIVERY” (DANA-FARBER CANCER INSTITUTE, INC., priority 2013, published 2016)
Peptide text beside a SMILES is read from it.

System: dendritic cells
Assay: Oligolysine induced toxicity to dendritic cells
Type: cell-based
Conditions: 1.5 μg/mL K20, different time intervals
Description: FIGS. 15A and 15B show oligolysine induced toxicity to dendritic cells. FIG. 15A: Freshly harvested dendritic cells were incubated with 1.5 μg/mL K20 for different time intervals. […] FIG. 15B: Confocal image of dendritic cells incubated with oligolysine (K20) peptide-coated, cy5 labeled DNA nanostructure.

SMILES: NCCCC[C@H](NC(=O)[C@H](CCCCN)NC(=O)[C@H](CCCCN)NC(=O)[C@H](CCCCN)NC(=O)[C@H](CCCCN)NC(=O)[C@H](CCCCN)NC(=O)[C@H](CCCCN)NC(=O)[C@H](CCCCN)NC(=O)[C@H](CCCCN)NC(=O)[C@H](CCCCN)NC(=O)[C@H](CCCCN)NC(=O)[C@H](CCCCN)NC(=O)[C@H](CCCCN)NC(=O)[C@H](CCCCN)NC(=O)[C@H](CCCCN)NC(=O)[C@H](CCCCN)NC(=O)[C@H](CCCCN)NC(=O)[C@H](CCCCN)NC(=O)[C@H](CCCCN)NC(=O)[C@@H](N)CCCCN)C(=O)O [K20] (H-KKKKKKKKKKKKKKKKKKKK-OH)
- appearance of dendritic cells under a microscope: cells appeared healthy
